Test results: publication PMC11784026, “Phase 1 study of the safety, tolerability, and pharmacokinetics of a synthetic macrocyclic peptide antibiotic (BRII-693) in healthy adult participants” (Antimicrobial Agents and Chemotherapy, 2024)
Read-outs that look alike come from different tables or passages of the source. Where a SMILES comes first, the peptide text is derived from it. Bridges are numbered along the chain shown (N, C = ends). [ ]: non-standard residue; d: D form. The star is where a group is joined. X1 = O=C(c1ccc(Cl)cc1Cl)*; Dab = NCC[C@H](N)C(=O)O; Abu = CC[C@H](N)C(=O)O; Dap = NC[C@H](N)C(=O)O

Experiment: Plasma pharmacokinetics after multiple ascending doses (MAD), phase 1
Type: in vivo, human (healthy adult participants)
Conditions: for Vd: read-out: VZ
Method: Participants were discharged on day 11.
Plasma and urine PK parameters were summarized for each cohort using descriptive statistics. Analyses using linear models were performed to assess dose proportionality (both single-dose cohorts 1–7 and multiple-dose cohorts 8–10). Dose-linearity of Cmax and AUC across the dose range was assessed by fitting the power model with ln-transformed parameter as response variables and ln-transformed dose (continuous variable) as a fixed effect. For each PK parameter and study phase (SAD or MAD) separately, a pooled estimate (across all dose cohorts) of slope, corresponding 95% confidence interval (CI), and between-subject coefficient of variation (CV) were calculated. Dose proportionality was to be concluded if the 95% CI for the slope spans 1. […] Least square means (LSMs) and difference in LSMs with 90% CI were calculated; these values were then back exponentiated to give the geometric LSM, geometric mean ratio, and 90% CI.

[1] = human, plasma, iv, 100 mg, First q6h dose (day 3), 7-day MAD 100 mg q6h × 7, n = 3, arithmetic mean ± SD
[2] = human, plasma, iv, 100 mg, Last q6h dose (day 9), 7-day MAD 100 mg q6h × 7, n = 6, arithmetic mean ± SD
[3] = human, plasma, iv, 150 mg, First q6h dose (day 1), 14-day MAD 150 mg q6h × 14, Chinese, n = 10, arithmetic mean ± SD
[4] = human, plasma, iv, 150 mg, First q6h dose (day 1), 14-day MAD 150 mg q6h × 14, non-Chinese, n = 10, arithmetic mean ± SD
[5] = human, plasma, iv, 150 mg, First q6h dose (day 3), 7-day MAD 150 mg q6h × 7, n = 5, arithmetic mean ± SD

Q: Which Tmax (First q6h dose (day 1), 14-day MAD 150 mg q6h × 14, Chinese, n = 10, median (range)) does the source give for `CC[C@@H]1NC(=O)[C@@H](CC(C)C)NC(=O)[C@H](CCN)NC(=O)[C@@H](NC(=O)[C@H](CN)NC(=O)[C@@H](NC(=O)[C@H](CCN)NC(=O)c2ccc(Cl)cc2Cl)[C@@H](C)O)CCNC(=O)[C@H]([C@@H](C)O)NC(=O)[C@H](CCN)NC(=O)[C@H](CCN)NC1=O` [BRII-693] (X1-[Dab]T[Dap][Dab][Dab][dL][Abu][Dab][Dab]T; lactam 4-C; N-terminus assumed) here?
A: 1.08 (1.02, 1.12) h

Q: What about the Tmax (First q6h dose (day 1), 14-day MAD 150 mg q6h × 14, non-Chinese, n = 10, median (range)) of the same molecule?
A: 1.07 (1.03, 1.25) h

Q: What about the Tmax (First q6h dose (day 3), 7-day MAD 100 mg q6h × 7, n = 6, median (range)) of the same molecule?
A: 1.13 (1.08, 1.25) h

Q: What about the t1/2 (First q6h dose (day 3), 7-day MAD 150 mg q6h × 7, n = 5, arithmetic mean ± SD) of the same molecule?
A: 2.40 ± 0.21 h

Q: And the Tmax (First q6h dose (day 3), 7-day MAD 150 mg q6h × 7, n = 5, median (range))?
A: 1.07 (1.02, 1.15) h

Q: What about the “ARAUC (accumulation ratio based on AUC)” value (Last q6h dose (day 9), 7-day MAD 100 mg q6h × 7, n = 6, arithmetic mean ± SD) of the same molecule?
A: 1.59 ± 0.14

Q: What about the “ARAUC (accumulation ratio based on AUC)” value (Last q6h dose (day 9), 7-day MAD 150 mg q6h × 7, n = 5, arithmetic mean ± SD) of the same molecule?
A: 1.48 ± 0.10

Q: What about the “ARAUC (accumulation ratio based on AUC)” value (Last q6h dose (day 9), 7-day MAD 200 mg q6h × 7, n = 5, arithmetic mean ± SD) of the same molecule?
A: 1.69 ± 0.34

Q: What about the “ARAUC (accumulation ratio based on AUC)” value (Last q6h dose (day 14), 14-day MAD 150 mg q6h × 14, Chinese, n = 6, arithmetic mean ± SD) of the same molecule?
A: 1.58 ± 0.19

Q: And the Tmax (Last q6h dose (day 14), 14-day MAD 150 mg q6h × 14, Chinese, n = 6, median (range))?
A: 1.07 (1.05, 1.22) h

Q: What about the “ARAUC (accumulation ratio based on AUC)” value (Last q6h dose (day 14), 14-day MAD 150 mg q6h × 14, non-Chinese, n = 10, arithmetic mean ± SD) of the same molecule?
A: 1.58 ± 0.17

Q: And the Tmax (Last q6h dose (day 14), 14-day MAD 150 mg q6h × 14, non-Chinese, n = 10, median (range))?
A: 1.07 (1.02, 1.10) h

Q: What about the “Geometric mean ratio for AUC0-6h, Chinese vs non-Chinese” value (after the first dose on day 1, 150 mg q6h × 14, 90% CI: 0.966, 1.20) of the same molecule?
A: 1.08

Q: What about the “Geometric mean ratio for Cmax, Chinese vs non-Chinese” value (after the first dose on day 1, 150 mg q6h × 14, 90% CI: 0.970, 1.24) of the same molecule?
A: 1.10

Q: What about the “Geometric mean ratio for AUC0-6h, Chinese vs non-Chinese” value (after the last dose on Day 14, 150 mg q6h × 14, 90% CI 0.926, 1.25) of the same molecule?
A: 1.08

Q: And the “Geometric mean ratio for Cmax, Chinese vs non-Chinese” value (after the last dose on Day 14, 150 mg q6h × 14, 90% CI 0.935, 1.20)?
A: 1.06

Q: What about the Cmax (human, plasma, iv, 100 mg, First q6h dose (day 3), 7-day MAD 100 mg q6h × 7, 1-h IV infusion, plasma, n = 6, arithmetic mean ± SD) of the same molecule?
A: 5.96 ± 0.71 µg/mL

Q: What about the clearance [1] of the same molecule?
A: 80.5 mL/min

Q: What about the Vd [1] of the same molecule?
A: 17.1 ± 2.72 L

Q: What about the half-life (human, plasma, iv, 100 mg, First q6h dose (day 3), 7-day MAD 100 mg q6h × 7, n = 6, arithmetic mean ± SD) of the same molecule?
A: 2.88 ± 0.5 h

Q: And the AUC(0-t) (human, plasma, iv, 100 mg, First q6h dose (day 3), 7-day MAD 100 mg q6h × 7, n = 6, arithmetic mean ± SD, read-out: AUC0-6h)?
A: 18 ± 2.38 µg·h/mL

Q: And the clearance [2]?
A: 59.5 mL/min

Q: And the half-life [2]?
A: 7.58 ± 1.72 h

Q: What about the AUC(0-t) (human, plasma, iv, 100 mg, Last q6h dose (day 9), 7-day MAD 100 mg q6h × 7, n = 6, arithmetic mean ± SD, read-out: AUC0–6h) of the same molecule?
A: 28.6 ± 4.48 µg·h/mL

Q: What about the Vd [2] of the same molecule?
A: 38.4 ± 8.18 L

Q: And the Tmax (human, plasma, iv, 100 mg, Last q6h dose (day 9), 7-day MAD 100 mg q6h × 7, n = 6, median (range), read-out: Tmax)?
A: 1.18 h

Q: What about the Cmax (human, plasma, iv, 100 mg, Last q6h dose (day 9), 7-day MAD 100 mg q6h × 7, plasma, n = 6, arithmetic mean ± SD) of the same molecule?
A: 8.12 ± 1 µg/mL

Q: What about the clearance [3] of the same molecule?
A: 77.7 mL/min

Q: And the half-life [3]?
A: 2.15 ± 0.28 h

Q: And the AUC(0-t) (human, plasma, iv, 150 mg, First q6h dose (day 1), 14-day MAD 150 mg q6h × 14, Chinese, n = 10, arithmetic mean ± SD, read-out: AUC0-6h)?
A: 27.3 ± 4.14 µg·h/mL

Q: What about the Vd [3] of the same molecule?
A: 14.4 ± 2.93 L

Q: And the Cmax (human, plasma, iv, 150 mg, First q6h dose (day 1), 14-day MAD 150 mg q6h × 14, Chinese, plasma, n = 10, arithmetic mean ± SD)?
A: 10.2 ± 1.89 µg/mL

Q: What about the clearance [4] of the same molecule?
A: 80 mL/min

Q: And the half-life [4]?
A: 2.42 ± 0.29 h

Q: What about the AUC(0-t) (human, plasma, iv, 150 mg, First q6h dose (day 1), 14-day MAD 150 mg q6h × 14, non-Chinese, n = 10, arithmetic mean ± SD, read-out: AUC0-6h) of the same molecule?
A: 25.2 ± 2.86 µg·h/mL

Q: And the Vd [4]?
A: 16.7 ± 2.57 L

Q: What about the Cmax (human, plasma, iv, 150 mg, First q6h dose (day 1), 14-day MAD 150 mg q6h × 14, non-Chinese, plasma, n = 10, arithmetic mean ± SD) of the same molecule?
A: 9.2 ± 1.05 µg/mL

Q: What about the Cmax (human, plasma, iv, 150 mg, First q6h dose (day 3), 7-day MAD 150 mg q6h × 7, 1-h IV infusion, plasma, n = 5, arithmetic mean ± SD) of the same molecule?
A: 8.69 ± 1.24 µg/mL

Q: What about the clearance [5] of the same molecule?
A: 82.3 mL/min

Q: And the AUC(0-t) (human, plasma, iv, 150 mg, First q6h dose (day 3), 7-day MAD 150 mg q6h × 7, n = 5, arithmetic mean ± SD, read-out: AUC0-6h)?
A: 24.8 ± 3.45 µg·h/mL

Q: And the Vd [5]?
A: 17.2 ± 3.33 L
